“Also recorded” adds a separate entry of the source.
Assays:
BM KSL cells = assay: Culture of non-irradiated BM KSL cells with TSF with and without EGF; assay type: cell-based, mouse; settings: TSF + 20 ng/ml EGF, 7 days, vs cytokines alone
[1] = system: BM hematopoietic stem and progenitor cells; assay: Hematopoietic regeneration in C57B16 mice after 700 cGy TBI (progenitor assays, competitive repopulation); assay type: in vivo, mouse
Experimental: BM cells were collected into PBS (Cellgro, Manassas, Va.) with 10% fetal bovine serum (Hyclone, Logan, Utah) and 1% penicillin/streptomycin (GIBCO, Grand Island, N.Y.). Viable BM cells were quantified using Trypan Blue Stain (Lonza, Basel, Switzerland) to exclude apoptotic and dead cells. Cells were then incubated with anti-c-kit, anti-Sca-1, anti-lineage cocktail, anti-CD41, anti-CD48, and anti-CD150 antibodies (Biolegend and eBiosciences, San Diego, Calif.; BD, San Jose, Calif.) to measure ckit^+sca-1^+lin^− (KSL) progenitor cells or CD150′CD41^−CD48^−KSL (SLAM/KSL) as previously described (Kiel et al, Cell 121:1109-1121 (2005)). Colony forming cells (CFCs) and CFU-S12 assays were also performed to measure functional hematopoietic stem/progenitor cell content. For CFCs, either whole BM or cultured lineage−cells, or KSL cells were plated onto methylcellulose (StemCell Technologies, Vancouver, BC, Canada), and colonies were scored on day 14. 1×10^5 BM or 2×10^5 cells were collected from donor mice and injected via tail vein into recipient C57B16 mice that had been given 950 cGy TBI. At day +12 post-injection, spleens from recipient mice were harvested and stained with Bouin's fixative solution (Ricca Chemical Company, Arlington, Tex.), and colonies were counted as previously described (Till and MeRadiat. Res. 14:213-222 (1961)). Complete blood counts were performed on a HemaVet 950 (Drew Scientific, Dallas, Tex.).
Competitive repopulation assays were also performed using donor C57B16 mice (CD45.2^+) that had been irradiated with 700 cGy TBI and gavaged daily with 10 μg/G erlotinib (Genentech, San Francisco, Calif.) or 150 μl water beginning on day 0 and continued through day +14. Donor BM cells were injected via tail vein into recipient B6.SJL mice (CD45.1^+) at a dose of 5×10^5 cells with a competing dose of host 1×10^5 BM MNCs. Tie2Cre;Bak1^−/−;Bax^FL/− mice were gavaged daily with 10 μg/G erlotinib or water starting day −3 and given 300 cGy TBI on day 0. Erlotinib administration continued until the timepoint of donor BM cell collection and analysis. Tie2Cre;Bak1^−/−;Bax^FL/− BM cells were injected via tail vein into recipient CD45.1^+ mice at a cell dose of 3×10^5 cells with a competing dose of host 1×10^5 CD45.1^+ cells. Multilineage hematopoietic reconstitution was measured in the PB of recipient mice by flow cytometry at 4, 8, and 12 weeks post-transplant. For survival studies with erlotinib administration, C57B16 mice were exposed to 700 cGy and then given 10 μg/G erlotinib or water starting day −3 and continuing daily through day +14.
Ten micrometer sections were cut using they CryoJane tape system (Instrumedics Inc, Hackensack, N.J., USA). Femurs were stained with hematoxylin and eosin or anti-mouse endothelial cell antibody (MECA-32) as previously described (Salter et al, Blood 113:2104-2107 (2009)) to assess BM cellularity and the BM vasculature after irradiation. Images were obtained using an Axiovert 200 microscope (Carl Zeiss Microscopy, Thornwood, N.Y.) or a Leica SP5 confocal microscope (Leica Microsystems Inc, Buffalo Grove, Ill.). Adobe Photoshop software (version 9.0.2, Adobe Systems, San JoSe, Calif.) was used to quantify positive signal as a measure of spatial distribution in the fields (Lehr et al, J. Histochem. Cytochem. 45:1559-1565 (1997), Lehr et al, J. Histochem. Cytochem. 47:119-126 (1999)).

AKT-S473 = assay: Phosphorylation of AKT-S473 in irradiated BM KSL cells; assay type: cell-based, mouse; settings: EGF treatment of irradiated BM KSL cells in culture, within 15 minutes, vs TSF alone
Experimental: Cell apoptosis and necrosis were analyzed by flow cytometry according to manufacturer's protocols with Annexin V-FITC and 7-AAD staining (BD, San Jose, Calif.). […] Cells were fixed and permeabilized with Fix Buffer I and Perm Buffer III (BD), and then stained with mouse anti-phospho-AKT-S473 PE (BD) or isotype control. Cell cycle analysis was performed by flow cytometric analysis modified from previous reports (Jordan et al, Exp. Hematol. 24:1347-1355 (1996), Chute et al, Hum. Gene Ther. 11:2515-2528 (2000), Sungartz et al, Blood 119:1308-1309 (2012)). Briefly, cells were fixed and permeabilized with 0.25% Saponin (Calbiochem, La Jolla, Calif.), 2.5% paraformaldehyde, 2% FBS in 1×PBS, and then labeled with Ki67-FITC and 7-AAD (BD). BM lin^− cells from VavCre;EGFR^+/+ or VavCre;EGER^fl/fl were cultured with TSF or TSF+10 μM erlotinib, or TSF following 300 cGy for 72 hours, and then collected for total cell counts and CFCs analysis.

[2] = 700 cGy TBI, EGF 0.5 ug/G IP daily x 7 days, day +7

Substance: EGF: epidermal growth factor; recombinant EGF (R&D Systems)
- expansion of BM KSL cells and CFU-S12 (BM KSL cells): increased significantly; also recorded: significant expansion
- increased BM KSL progenitor cells vs saline [1, 2]: 6 fold
- increased BM cells vs saline [1, 2]: 2 fold
- increased CFCs vs saline [1, 2]: 7 fold
- increased CFU-S12 vs saline [1, 2]: 8 fold
- BM cellularity ([1]; 700 cGy TBI, EGF daily x 7 days, day +7): preserved BM cellularity; also recorded: largely preserved
- BM HSC content by competitive repopulation assay ([1]; 700 cGy TBI, EGF x 7 days, BM at day +7, vs saline): significantly increased
- multilineage reconstitution of myeloid cells, B cells and T cells in recipients ([1]; BM from irradiated EGF-treated mice, 12 weeks post-transplant, vs saline): increased multilineage reconstitution
- repopulating cell content (donor stem cell engraftment in recipients) ([1]; Example 1, BM at day +7 or day +14 following 700 cGy TBI, EGF vs saline): significantly higher repopulating cell content
- recovery of bone marrow stem and progenitor cells ([1]; Example 1, recombinant EGF via intraperitoneal injection into irradiated wild type mice, vs controls): marked acceleration
- engraftment in secondary transplant recipients at 12 weeks ([1]; donor BM collected at day +7 following TBI, data not shown): no significant engraftment
- donor cell repopulation in secondary transplant recipients at 12 weeks ([1]; donor BM collected at day +14 following TBI from EGF-treated mice, vs saline): significantly increased; also recorded: markedly increased donor cell repopulation
- increase in Akt phosphorylation (AKT-S473): 50%

From patent publication US20130331326A1, “METHOD OF INDUCING HEMATOPOIETIC RECONSTRUCTION” (DUKE UNIVERSITY, priority 2011, published 2013)
